For 1 compound, Kd results are on record in PMC10098062 (Molecular Plant Pathology, 2023).

This test deals with SstF F299A (SFN-sensing transcription factor, LysR family) (Xanthomonas campestris, UniProt Q8PAP2, F299A). As to the kind of experiment: biochemical.

What is called Kd is a measure of binding affinity in units of concentration. A lower Kd goes with a tighter complex.

The compound `C[S+]([O-])CCCCN=C=S` (stereo not shown) [SFN, Sulforaphane] displayed a Kd of 143 µM.
